Source: patent publication US20100292132A1, “USE OF INSULIN C-PEPTIDE, ALONE OR IN COMBINATION WITH GLP-1, AS A THERAPEUTIC AGENT” (priority 2007, published 2010)

Columns and labels:
HIV-1IIIB = assay: HIV-1 antiviral assay (CPE reduction, MTS) in CEM-SS cells; conditions: for antiviral activity of positive control compounds: HIV-1IIIB in CEM-SS cells; for reduction of cytopathic effect (CPE) in HIV-1 infected CEM-SS cells: 10 micrograms per ml, HIV-1IIIB, 6 days post-infection
HCMV strain AD169 = assay: HCMV plaque formation assay in MRC-5 cells; conditions: for inhibition of HCMV plaque formation as compared to the virus control experiment: 10 micrograms per ml, MRC-5 cells, 7-10 days
[1] = system: Primary Human endothelial cells (HUVEC); assay: Endothelial cell migration assay; format: cell-based; conditions: 10 micrograms per ml; 22 hours
Procedure: Primary Human endothelial cells (HUVEC) were seeded in insert chambers with 3 micrometer pore size of multi-transwell plate for 6 hours at 37° C. in Endothelial Cell Basal Medium (EBM) supplemented with 0.1% bovine serum albumin. Thereafter, designated concentration of testing peptides—10 micrograms per ml—was added in duplicate wells. The endothelia were allowed to migrate for 22 hours at 37° C., then, migrated cells were fixed and stained with Hoechst 33342 dye. Images of 3 fields per insert were taken and the number of migrated cells per field were quantified using the ImageProPlus software. Data were analyzed for the average number of the migrated cells and standard deviation of six data points for each treatment condition. Active test peptides against HUVEC migration was determined based on 50% inhibition of migrated cells as compared with the control. Statistic p values were computed using the Student's t-test.

[2] = system: hepatitis B virus (HBV) ayw strain; assay: HBV replication assay in HepG2-2.2.15 cells (TaqMan PCR of secreted HBV DNA); format: cell-based; conditions: 10 micrograms per ml, six days
HUVEC = assay: Endothelial tube formation assay; format: cell-based, human; conditions: 10 micrograms per ml; 20 hours
Procedure: The endothelial tube formation assay is based on the ability of endothelial cells to form three-dimensional capillary-like tubular structures when cultured on a gel of basement membrane extract. The endothelial tube formation assay represents a powerful model for studying inhibition and induction of angiogenesis. Pre-labeled HUVEC with Calcein AM were seeded in a 96-well culture plate coated with extracellular metrix (Chemicon international Cat. ECM625) and treated with test peptides—10 micrograms per ml—in full growth medium. Positive control wes vehicle only. The endothelial cells were allowed to form tubes foe 20 hours and were then examined under an inverted fluorescent microscope. Duplicate wells for each treatment were photographed and quantitatevily analyzed for an average tubule length using image analysis software ImageProPlus. Raw data were expressed as average tubule lenghs in pixels ± standard deviation. Statistic p values were computed using the Student's t-test.

murine spleen cells = assay: Th1/Th2 cytokine profiling assay; format: cell-based, Balb/c mice; conditions: 10 micrograms per ml; Ovalbumin restimulation; 72 hours
Excerpt: The Balb/c mice (originated in 1923, it is a popular strain and is used in many different research disciplines. Also classified as an inbred from the production of 20 or more successive brother-sister matings, the Balb/c mouse is albino and small in size) were immunized on Days 1, 15, and 29 with Ovalbumin (Ovalbumin is the main protein found in egg white, commonly used to stimulate an immunological reaction in test animals) in PBS (5 micrograms/injection). On day 50, spleens of the mice were harvested (3 weeks after last boost with Ovalbumin). […] Thereafter, additional Ovalbumin was added to the cells at 10 micrograms/ml for in vitro restimulation of the cells. 72 hours later, cell supernatants were harvested and assayed using the Becton Dickinson Mouse Th1/Th2 Cytokine CBA Kit. This kit can be used to measure Interleukin-2 (IL-2), Interleukin-4 (IL-4), Interleukin-5 (IL-5), Interferon-γ(IFN-γ), and Tumor Necrosis Factor-α (TNF-α) protein levels in a single sample. The kit performance has been optimized for analysis of physiologically relevant concentrations (pg/ml levels) of specific cytokine proteins in tissue culture supernatants and serum samples.

| Molecule | antiviral activity of positive control compounds (HIV-1IIIB) | inhibition of the migration of human endothelial cells [1] [%] | inhibition of HBV replication as compared to the virus control infection [2] [%] | inhibition of the tube formation of human endothelial cells (HUVEC) [%] | inhibition of HCMV plaque formation as compared to the virus control experiment (HCMV strain AD169) | change of the production of IL-5 (murine spleen cells) | change of the production of TNF-alpha (murine spleen cells) | reduction of cytopathic effect (CPE) in HIV-1 infected CEM-SS cells (HIV-1IIIB) [%] | also measured |
| --- | --- | --- | --- | --- | --- | --- | --- | --- | --- |
| Cc1cn([C@H]2C[C@H](N=[N+]=[N-])[C@@H](CO)O2)c(=O)[nH]c1=O [AZT, reference compound] | expected levels of antiviral activity | – | – | – | – | – | – | – | – |
| Nc1nc(O)c2ncn(COC(CO)CO)c2n1 [Ganciclovir, reference compound] | – | – | – | – | – | – | – | – | antiviral activity of positive control compound (HCMV strain AD169; HCMV in MRC-5 cells): expected levels of antiviral activity |
| CC(C)(C)NC(=O)[C@@H]1CN(Cc2cccnc2)CCN1C[C@@H](O)C[C@@H](Cc1ccccc1)C(=O)N[C@H]1c2ccccc2C[C@H]1O [indinavir, reference compound] | expected levels of antiviral activity | – | – | – | – | – | – | – | – |
| Glu-Ala-Glu-Asp-Leu-Gln-Val-Gly-Gln-Val-Glu-Leu-Gly-Gly-Gly-Pro-Gly-Ala-Gly-Ser-Leu-Gln-Pro-Leu-Ala-Leu-Glu-Gly-Ser-Leu-Gln-OH (EAEDLQVGQVELGGGPGAGSLQPLALEGSLQ; printed: Glu-Ala-Glu-Asp-Leu-Gln-Val-Gly-Gln-Val-Glu-Leu-Gly-Gly-Gly-Pro-Gly-Ala-Gly-Ser-Leu-Gln-Pro-Leu-Ala-Leu-Glu-Gly-Ser-Leu-Gln-) [Peptide 1] | – | 29 | 13.6 | 19 | did not inhibit | did not significantly change | did not significantly change | 93.6 | change of the production of IFN-gamma (murine spleen cells): did not significantly change; induction of the production of IL-2 (murine spleen cells): 24.6%; induction of the production of IL-4 (murine spleen cells): 34.7% |
| His-Ala-Glu-Gly-Thr-Phe-Thr-Ser-Asp-Val-Ser-Ser-Tyr-Leu-Glu-Gly-Gln-Ala-Ala-Lys-Glu-Phe-Ile-Ala-Trp-Leu-Val-Lys-Gly-Arg-NH2 [Peptide 2] | – | 6 | 37.2 | 1 | 2.9% | did not significantly change | did not significantly change | 61.1 | decrease of the production of IFN-gamma (murine spleen cells): 39.7%; decrease of the production of IL-2 (murine spleen cells): 45.7%; decrease of the production of IL-4 (murine spleen cells): 70.9% |
